This is an account of results in ChEMBL document CHEMBL3108755, “Dermacozines H-J isolated from a deep-sea strain of Dermacoccus abyssi from Mariana Trench sediments” (J Nat Prod, 2014).

In this test the test system is Radical scavenging activity. Kind of test: Antioxidant activity assessed as DPPH radical scavenging activity. It is filed as functional.
As usually defined, the IC50 is the concentration at which inhibition is half-maximal. As for `CC(=O)NC(CSc1ccc(C(N)=O)c2c1Nc1c(C(N)=O)cc(C(=O)c3ccccc3)cc1N2C)C(=O)O` (stereo not given), the half-maximal inhibitory concentration (IC50) came to 19.6 µM.

On to `CN1c2cccc(C(N)=O)c2Nc2c(C(=O)c3ccccc3)ccc(C(N)=O)c21`, for which the IC50 was 34.6 µM.

For the compound `CN1c2cc(C(=O)c3ccccc3)cc(C(=O)O)c2Nc2cccc(C(N)=O)c21`, the concentration for half-maximal inhibition (IC50) was found to be 8.4 µM.

As to `O=C1O[C@H]([C@@H](O)CO)C(O)=C1O` [ASCORBIC ACID], the IC50 worked out at 12.1 µM.

In the case of `CN1c2cc(C=O)cc(C(=O)O)c2Nc2cccc(C(N)=O)c21`, the IC50 is 18.8 µM.
